Results reported in PubChem BioAssay (NCI).
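GI50 marks 50% less growth. TGI: total growth inhibition.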

Assays:
Experiment in all cases: NCI anticancer screen, dose series, 384-well format
SNB-75 CNS = test system: SNB-75 CNS
CAKI-1 renal = test system: CAKI-1 renal
SK-OV-3 ovarian = test system: SK-OV-3 ovarian
SF-295 CNS = test system: SF-295 CNS
NCI-H522 lung = test system: NCI-H522 lung
SF-539 CNS = test system: SF-539 CNS
COLO 205 colon = test system: COLO 205 colon
RXF 393 renal = test system: RXF 393 renal
SW-620 colon = test system: SW-620 colon
HL-60(TB) leukemia = test system: HL-60(TB) leukemia
SK-MEL-28 melanoma = test system: SK-MEL-28 melanoma
EKVX NSCLC = test system: EKVX NSCLC
786-0 renal = test system: 786-0 renal
SN12C renal = test system: SN12C renal
HCC-2998 colon = test system: HCC-2998 colon
SF-268 CNS = test system: SF-268 CNS
SK-MEL-5 melanoma = test system: SK-MEL-5 melanoma
OVCAR-4 ovarian = test system: OVCAR-4 ovarian
MDA-MB-468 breast = test system: MDA-MB-468 breast
SNB-19 CNS = test system: SNB-19 CNS
HOP-62 NSCLC = test system: HOP-62 NSCLC
TK-10 renal = test system: TK-10 renal
MDA-MB-435 melanoma = test system: MDA-MB-435 melanoma
MCF7 breast = test system: MCF7 breast
A498 renal = test system: A498 renal
MALME-3M melanoma = test system: MALME-3M melanoma
M14 melanoma = test system: M14 melanoma
NCI/ADR-RES ovarian = test system: NCI/ADR-RES ovarian
MOLT-4 leukemia = test system: MOLT-4 leukemia
SR leukemia = test system: SR leukemia
HT29 colon = test system: HT29 colon
LOX IMVI melanoma = test system: LOX IMVI melanoma
UACC-62 melanoma = test system: UACC-62 melanoma
NCI-H226 lung = test system: NCI-H226 lung
OVCAR-3 ovarian = test system: OVCAR-3 ovarian
DU-145 prostate = test system: DU-145 prostate
ACHN renal = test system: ACHN renal
IGROV1 ovarian = test system: IGROV1 ovarian
HCT-15 colon = test system: HCT-15 colon
NCI-H23 lung = test system: NCI-H23 lung
HS 578T breast = test system: HS 578T breast
MDA-MB-231 breast = test system: MDA-MB-231 breast
CCRF-CEM leukemia = test system: CCRF-CEM leukemia
T-47D breast = test system: T-47D breast
NCI-H322M lung = test system: NCI-H322M lung
OVCAR-5 ovarian = test system: OVCAR-5 ovarian
KM12 colon = test system: KM12 colon
PC-3 prostate = test system: PC-3 prostate
UACC-257 melanoma = test system: UACC-257 melanoma
OVCAR-8 ovarian = test system: OVCAR-8 ovarian
A549 NSCLC = test system: A549 NSCLC
HOP-92 NSCLC = test system: HOP-92 NSCLC
K-562 leukemia = test system: K-562 leukemia
NCI-H460 NSCLC = test system: NCI-H460 NSCLC
U251 glioblastoma = test system: U251 glioblastoma
BT-549 breast = test system: BT-549 breast
UO-31 renal = test system: UO-31 renal
RPMI-8226 leukemia = test system: RPMI-8226 leukemia

In the case of `C[C@@H]1COC(Nc2ccc3ncnc(Nc4ccc(OCc5nccs5)c(Cl)c4)c3c2)=N1`, the GI50 (SNB-75 CNS) is reported as 13.5 µM, the TGI (SNB-75 CNS) is reported as 28.2 µM and the GI50 (CAKI-1 renal) is reported as 1.81 µM. It also gave a TGI (CAKI-1 renal) of 14.8 µM, a GI50 (SK-OV-3 ovarian) of 2.2 µM and a TGI (SK-OV-3 ovarian) of 12.5 µM. The GI50 (SF-295 CNS) was 13 µM, the TGI (SF-295 CNS) was 26.2 µM and the GI50 (NCI-H522 lung) was 0.539 µM. For the same molecule, the TGI (NCI-H522 lung) was 2.66 µM, the GI50 (SF-539 CNS) was 12.3 µM and the TGI (SF-539 CNS) was 24.8 µM. For the same molecule, the GI50 (COLO 205 colon) was 6.44 µM, the TGI (COLO 205 colon) was 19 µM and the GI50 (RXF 393 renal) was 5.8 µM. The TGI (RXF 393 renal) was 18.7 µM, the GI50 (SW-620 colon) was 19 µM and the TGI (SW-620 colon) was 35.7 µM. It also gave a GI50 (HL-60(TB) leukemia) of 3.82 µM, a TGI (HL-60(TB) leukemia) of 8.05 µM and a GI50 (SK-MEL-28 melanoma) of 4.88 µM. For the same molecule, the TGI (SK-MEL-28 melanoma) was 17.2 µM, the GI50 (EKVX NSCLC) was 0.332 µM and the TGI (EKVX NSCLC) was 11.4 µM. For the same molecule, the GI50 ([…]-0 renal) was 4.26 µM, the TGI (786-0 renal) was 16.9 µM and the GI50 (SN12C renal) was 2.78 µM. It also gave a TGI (SN12C renal) of 16.1 µM, a GI50 (HCC-2998 colon) of 12.3 µM and a TGI (HCC-2998 colon) of 26.7 µM. It also gave a GI50 (SF-268 CNS) of 9.55 µM, a TGI (SF-268 CNS) of 23.5 µM and a GI50 (SK-MEL-5 melanoma) of 1.77 µM. It also gave a TGI (SK-MEL-5 melanoma) of 4.21 µM, a GI50 (OVCAR-4 ovarian) of 2.32 µM and a TGI (OVCAR-4 ovarian) of 14.8 µM. For the same molecule, the GI50 (MDA-MB-468 breast) was 0.137 µM, the TGI (MDA-MB-468 breast) was 0.342 µM and the GI50 (SNB-19 CNS) was 11.1 µM. It also gave a TGI (SNB-19 CNS) of 24.5 µM, a GI50 (HOP-62 NSCLC) of 4.22 µM and a TGI (HOP-62 NSCLC) of 15 µM. It also gave a GI50 (TK-10 renal) of 1.48 µM, a TGI (TK-10 renal) of 17.9 µM and a GI50 (MDA-MB-435 melanoma) of 11.8 µM. It also gave a TGI (MDA-MB-435 melanoma) of 24.7 µM, a GI50 (MCF7 breast) of 5.96 µM and a TGI (MCF7 breast) of 21.2 µM. For the same molecule, the GI50 (A498 renal) was 4.31 µM, the TGI (A498 renal) was 19 µM and the GI50 (MALME-3M melanoma) was 3.43 µM. For the same molecule, the TGI (MALME-3M melanoma) was 11.4 µM, the GI50 (M14 melanoma) was 6.3 µM and the TGI (M14 melanoma) was 18.3 µM. The GI50 (NCI/ADR-RES ovarian) was 2.39 µM, the TGI (NCI/ADR-RES ovarian) was 6.92 µM and the GI50 (MOLT-4 leukemia) was 1.85 µM. For the same molecule, the TGI (MOLT-4 leukemia) was 3.59 µM, the GI50 (SR leukemia) was 7.27 µM and the TGI (SR leukemia) was 20.5 µM. For the same molecule, the GI50 (HT29 colon) was 6.33 µM, the TGI (HT29 colon) was 19.9 µM and the GI50 (LOX IMVI melanoma) was 3.25 µM. It also gave a TGI (LOX IMVI melanoma) of 11.6 µM, a GI50 (UACC-62 melanoma) of 4.25 µM and a TGI (UACC-62 melanoma) of 16.2 µM. For the same molecule, the GI50 (NCI-H226 lung) was 1.66 µM, the TGI (NCI-H226 lung) was 5.47 µM and the GI50 (OVCAR-3 ovarian) was 1.83 µM. It also gave a TGI (OVCAR-3 ovarian) of 7.84 µM, a GI50 (DU-145 prostate) of 3.22 µM and a TGI (DU-145 prostate) of 17.6 µM. The GI50 (ACHN renal) was 0.563 µM, the TGI (ACHN renal) was 17.4 µM and the GI50 (IGROV1 ovarian) was 0.335 µM. It also gave a TGI (IGROV1 ovarian) of 2.13 µM, a GI50 (HCT-15 colon) of 5.44 µM and a TGI (HCT-15 colon) of 21.5 µM. The GI50 (NCI-H23 lung) was 7.4 µM, the TGI (NCI-H23 lung) was 26.3 µM and the GI50 (HS 578T breast) was 4.71 µM. For the same molecule, the TGI (HS 578T breast) was 15.6 µM, the GI50 (MDA-MB-231 breast) was 9.67 µM and the TGI (MDA-MB-231 breast) was 22.8 µM. For the same molecule, the GI50 (CCRF-CEM leukemia) was 3.44 µM, the TGI (CCRF-CEM leukemia) was 8.53 µM and the GI50 (T-47D breast) was 0.641 µM. It also gave a TGI (T-47D breast) of 4.52 µM, a GI50 (NCI-H322M lung) of 0.337 µM and a TGI (NCI-H322M lung) of 12.9 µM. For the same molecule, the GI50 (OVCAR-5 ovarian) was 6.68 µM, the TGI (OVCAR-5 ovarian) was 28.2 µM and the GI50 (KM12 colon) was 5.6 µM. For the same molecule, the TGI (KM12 colon) was 18.8 µM, the GI50 (PC-3 prostate) was 5.36 µM and the TGI (PC-3 prostate) was 17 µM. It also gave a GI50 (UACC-257 melanoma) of 9.37 µM, a TGI (UACC-257 melanoma) of 21.2 µM and a GI50 (OVCAR-8 ovarian) of 3.12 µM. For the same molecule, the TGI (OVCAR-8 ovarian) was 12.4 µM, the GI50 (A549 NSCLC) was 4.91 µM and the TGI (A549 NSCLC) was 19.8 µM. For the same molecule, the GI50 (HOP-92 NSCLC) was 3.25 µM, the TGI (HOP-92 NSCLC) was 17 µM and the GI50 (K-562 leukemia) was 4.48 µM. It also gave a TGI (K-562 leukemia) of 16.6 µM, a GI50 (NCI-H460 NSCLC) of 3.71 µM and a TGI (NCI-H460 NSCLC) of 12.8 µM. It also gave a GI50 (U251 glioblastoma) of 10.7 µM, a TGI (U251 glioblastoma) of 22.8 µM and a GI50 (BT-549 breast) of 3.81 µM. It also gave a TGI (BT-549 breast) of 12.2 µM, a GI50 (UO-31 renal) of 10.9 µM and a TGI (UO-31 renal) of 23.6 µM. The GI50 (RPMI-8226 leukemia) was 3.48 µM and the TGI (RPMI-8226 leukemia) was 11 µM.
